Where two headings read alike, the source gives them in different places. Bridge positions count the residues as written; N and C are the ends. Square brackets hold non-standard residues; d marks the D form. Ends that are not written are not given here. Peptide text beside a SMILES is read from it. I, II: the chains in the order shown.

Data on 32 molecules can be found in patent US6001809A, “Inhibitors of leukocyte adhesion” (Elan Pharmaceuticals, Inc., priority 1995, dated 1999).

For assay [1], the target named is T1, VLA-4 integrin interaction with VCAM-1 (Homo sapiens, UniProt P05556+P13612).
T1 construct: endogenous in cells; host or cells: Jurkat cells (VLA-4)
Description: Jurkat interaction with soluble VCAM-1 (sVCAM-1-IgG), FACS assay. Format: cell-based. The text has this:
VCAM-1 was expressed as a soluble fusion protein. The construct expressed the seven extracellular domains of VCAM-1 on the N-terminus, and the human IgG1 heavy chain constant region on the C-terminus. Interaction of the soluble construct with Jurkat cells was monitored by standard FACS analysis, using a fluorescently labeled antibody directed against the construct's human IgG tail as a marker.
The activity of VLA-4 can be regulated. 15/7 is a monoclonal antibody that recognizes an activated conformation of VLA-4 and locks the molecule in the active state, thereby enhancing VLA-4-mediated cell adhesion.
Peptides of different length, and with various amino acid substitutions were synthesized based on the sequence of the CDR3 region of the antibody 21/6 (EGYYGNYGVYA) (SEQ ID No. 4). The peptides were then tested for their ability to inhibit Jurkat interaction with sVCAM-1-IgG in the FACS assay described in Example 6. IC50 values were determined for each peptide using this assay.
(In general: A flow cytometer gives signals particle by particle.)

Another assay concerns the target T2, VLA-4 integrin (Homo sapiens, UniProt P05556+P13612).
T2 construct: endogenous in cells; host or cells: Jurkat cells
As to the kind of experiment: Adhesion of Jurkat cells to peptide-BSA conjugates. Format: cell-based. The conditions noted are these: peptide conjugated to carrier protein, coated on plastic at 3 μg/mL; FIG. 1. On the procedure: The peptide used in this example was synthesized based on the sequence of the anti-α4 integrin antibody 21/6 (CGGEGYYGNYGVYA, SEQ ID No. 1). In this example the peptide was conjugated to a large carrier protein via the linker region that was synthesized as part of the peptide itself (in italics). The conjugated peptide was then coated onto plastic, and the ability of the conjugate to support cell adhesion was tested. This method is based on a report by Wayner and Kovach^40.
As a positive control, the fibronectin peptide described by Wayner was synthesized, conjugated to carrier protein, and tested for cell adhesion in parallel with SEQ ID NO. 1 (CGGEILDVPST, SEQ ID No. 2). Both peptide conjugates were exposed to the plastic at a concentration of 3 μg/mL. […] Adhesion was not affected by an antibody against β2 integrin (IOT18), a distinct cell adhesion molecule that is also expressed on the surface of Jurkat cells. Thus, like peptide SEQ ID NO. 2, peptide SEQ ID NO. 1 interacts with Jurkat in an α4 integrin-specific fashion.

[2] abbreviates: per Example 6: inhibition of Jurkat interaction with sVCAM-1-IgG, FACS, Mn+2 and 15/7 present, read-out: IC50.

T1 sequence (P13612 34-1032): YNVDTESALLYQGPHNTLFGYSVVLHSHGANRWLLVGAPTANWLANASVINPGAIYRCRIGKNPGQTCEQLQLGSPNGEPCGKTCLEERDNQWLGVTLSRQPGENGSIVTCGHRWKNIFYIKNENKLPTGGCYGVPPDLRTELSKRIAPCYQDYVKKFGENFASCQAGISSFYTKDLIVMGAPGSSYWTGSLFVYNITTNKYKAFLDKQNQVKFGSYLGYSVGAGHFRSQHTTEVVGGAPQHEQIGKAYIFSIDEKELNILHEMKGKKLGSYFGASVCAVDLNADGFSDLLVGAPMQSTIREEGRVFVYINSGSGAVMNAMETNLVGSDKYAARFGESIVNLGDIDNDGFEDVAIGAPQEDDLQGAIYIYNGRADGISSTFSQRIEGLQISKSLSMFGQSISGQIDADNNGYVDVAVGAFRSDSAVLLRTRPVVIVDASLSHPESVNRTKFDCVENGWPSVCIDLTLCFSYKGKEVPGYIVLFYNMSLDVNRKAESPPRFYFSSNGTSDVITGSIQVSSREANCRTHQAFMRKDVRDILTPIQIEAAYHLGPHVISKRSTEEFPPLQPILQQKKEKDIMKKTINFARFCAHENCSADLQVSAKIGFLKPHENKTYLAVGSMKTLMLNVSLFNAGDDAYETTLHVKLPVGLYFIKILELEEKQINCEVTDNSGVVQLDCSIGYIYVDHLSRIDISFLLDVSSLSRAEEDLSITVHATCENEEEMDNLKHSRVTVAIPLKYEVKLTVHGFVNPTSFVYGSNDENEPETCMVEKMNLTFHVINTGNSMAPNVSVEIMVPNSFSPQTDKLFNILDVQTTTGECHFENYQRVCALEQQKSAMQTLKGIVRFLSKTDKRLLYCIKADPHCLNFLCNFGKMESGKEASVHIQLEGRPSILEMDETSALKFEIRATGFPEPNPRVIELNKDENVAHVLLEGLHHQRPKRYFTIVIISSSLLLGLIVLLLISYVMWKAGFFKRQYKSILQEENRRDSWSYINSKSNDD
T1 sequence (P05556 21-798): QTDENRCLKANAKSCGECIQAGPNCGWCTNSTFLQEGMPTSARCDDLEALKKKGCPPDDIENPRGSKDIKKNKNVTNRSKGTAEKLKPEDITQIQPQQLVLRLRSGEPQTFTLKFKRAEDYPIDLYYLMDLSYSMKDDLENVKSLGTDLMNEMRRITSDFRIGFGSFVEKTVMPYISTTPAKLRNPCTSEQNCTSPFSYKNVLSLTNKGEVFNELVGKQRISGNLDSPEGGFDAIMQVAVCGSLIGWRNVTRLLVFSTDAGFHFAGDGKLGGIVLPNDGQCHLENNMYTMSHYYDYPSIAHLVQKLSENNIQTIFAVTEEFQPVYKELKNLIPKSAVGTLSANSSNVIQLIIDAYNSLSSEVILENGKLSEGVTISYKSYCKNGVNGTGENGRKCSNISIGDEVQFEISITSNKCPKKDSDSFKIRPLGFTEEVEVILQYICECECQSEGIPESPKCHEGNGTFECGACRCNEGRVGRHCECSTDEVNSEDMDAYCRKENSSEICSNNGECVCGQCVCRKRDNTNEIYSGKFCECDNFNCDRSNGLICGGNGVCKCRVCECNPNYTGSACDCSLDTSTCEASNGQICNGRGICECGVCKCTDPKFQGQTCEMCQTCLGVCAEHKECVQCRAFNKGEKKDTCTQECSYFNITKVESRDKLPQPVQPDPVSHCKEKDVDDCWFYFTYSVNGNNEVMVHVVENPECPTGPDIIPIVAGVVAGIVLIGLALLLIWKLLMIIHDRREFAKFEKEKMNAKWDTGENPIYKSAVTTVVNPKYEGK
T2 sequence (P13612 34-1032): as the sequence (P13612 34-1032) above
T2 sequence (P05556 21-798): as the sequence (P05556 21-798) above

For orientation: IC50 means the concentration that gives 50% inhibition. The molecule `NC(=O)C[C@@H]1NC(=O)CNC(=O)[C@H](Cc2ccccc2)NC(=O)CNC(=O)[C@@H](N)CSSC[C@@H](C(=O)O)NC(=O)[C@H](Cc2ccc(O)cc2)NC(=O)[C@H](CO)NC(=O)[C@H](Cc2c[nH]cn2)NC(=O)[C@H](CCC(=O)O)NC1=O` [SEQ ID No. 31, CGFGNEHSYC] (H-CGFGNEHSYC-OH; disulfide 1-10) gave an IC50 in assay [1] not above 50 µM. In turn, `NC(=O)C[C@@H]1NC(=O)CNC(=O)[C@H](Cc2ccccc2)NC(=O)[C@@H](N)CSSC[C@@H](C(=O)O)NC(=O)[C@H](CO)NC(=O)[C@H](Cc2c[nH]cn2)NC(=O)[C@H](CCC(=O)O)NC1=O` [SEQ ID No. 32, CFGNEHSC] (H-CFGNEHSC-OH; disulfide 1-8) registered an IC50 in assay [1] not above 50 µM.

With `CC[C@H](C)[C@@H]1NC(=O)[C@H](CCC(N)=O)NC(=O)[C@H]([C@@H](C)O)NC(=O)[C@H](CCCNC(=N)N)NC(=O)[C@@H](N)CSSC[C@@H](C(=O)O)NC(=O)[C@H](CO)NC(=O)[C@H](CC(=O)O)NC1=O` [SEQ ID No. 35, CRTQIDSC] (H-CRTQIDSC-OH; disulfide 1-8), in assay [1] (setting [2]), the concentration for half-maximal inhibition (IC50) was not above 50 µM.

In assay [1], `NC(=O)CC[C@@H]1NC(=O)CNC(=O)[C@H](Cc2ccc(O)cc2)NC(=O)[C@H](Cc2ccc(O)cc2)NC(=O)CSC[C@@H](C(=O)O)NC1=O` [SEQ ID No. 52, [Ac]YYGQC] ({CH2CO}-YYGQC-OH; thioether N-5) showed an IC50 not above 50 µM.

For the molecule `C[C@@H]1NC(=O)CNC(=O)[C@H](Cc2ccc(O)cc2)NC(=O)[C@H](Cc2ccc(O)cc2)NC(=O)CSC[C@@H](C(=O)O)NC1=O` [SEQ ID No. 54, [Ac]YYGAC] ({CH2CO}-YYGAC-OH; thioether N-5), in assay [1], the IC50 was not above 50 µM.

Molecule `NC(=O)C[C@@H]1NC(=O)[C@H](CCC(=O)O)NC(=O)[C@H](Cc2ccc(O)cc2)NC(=O)[C@H](Cc2ccc(O)cc2)NC(=O)CSC[C@@H](C(=O)O)NC1=O` [SEQ ID No. 60, [Ac]YYENC] ({CH2CO}-YYENC-OH; thioether N-5) showed an IC50 in assay [1] not above 50 µM. For the molecule `NC(=O)C[C@@H]1NC(=O)[C@H](Cc2ccc(O)cc2)NC(=O)CNC(=O)[C@H](Cc2ccc(O)cc2)NC(=O)[C@H](Cc2ccc(O)cc2)NC(=O)CSC[C@@H](C(=O)O)NC1=O` [SEQ ID No. 62, [Ac]YYGYNC] ({CH2CO}-YYGYNC-OH; thioether N-6), the IC50 in assay [1] is not above 50 µM. As for `C[C@H](N)C(=O)N[C@@H](Cc1ccc(O)cc1)C(=O)N[C@@H](Cc1ccccc1)C(=O)NCC(=O)N1CCC[C@H]1C(=O)N[C@@H](CSSC[C@H](NC(=O)[C@@H]1CCCN1C(=O)CNC(=O)[C@H](Cc1ccccc1)NC(=O)[C@H](Cc1ccc(O)cc1)NC(=O)[C@H](C)N)C(=O)O)C(=O)O` [SEQ ID No. 71, AYFGPC AYFGPC] (I: H-AYFGPC-OH / II: H-AYFGPC-OH; disulfide I:6-II:6), the IC50 in assay [1] is not above 50 µM. For `CC(C)C[C@H]1NC(=O)CSC[C@@H](C(=O)O)NC(=O)[C@H](CC(N)=O)NC(=O)CNC(=O)[C@H](Cc2ccccc2)NC1=O` [SEQ ID No. 94, [Ac]lFGNC] ({CH2CO}-[dL]FGNC-OH; thioether N-5), the IC50 in assay [1] was not above 50 µM. Take `CC(C)[C@H]1NC(=O)CSC[C@@H](C(=O)O)NC(=O)[C@H](CC(N)=O)NC(=O)CNC(=O)[C@H](Cc2ccccc2)NC1=O` [SEQ ID No. 96, [Ac]vFGNC] ({CH2CO}-[dV]FGNC-OH; thioether N-5): the IC50 in assay [1] was not above 50 µM. Molecule `C[C@H](N)C(=O)N[C@@H](Cc1ccc(O)cc1)C(=O)N[C@@H](Cc1ccc(O)cc1)C(=O)N[C@@H](CCC(=O)O)C(=O)N[C@@H](CC(N)=O)C(=O)N[C@@H](CSSC[C@H](NC(=O)[C@H](CC(N)=O)NC(=O)[C@H](CCC(=O)O)NC(=O)[C@H](Cc1ccc(O)cc1)NC(=O)[C@H](Cc1ccc(O)cc1)NC(=O)[C@H](C)N)C(=O)O)C(=O)O` [SEQ ID No. 123, AYYENC AYYENC] (I: H-AYYENC-OH / II: H-AYYENC-OH; disulfide I:6-II:6) registered a 50% inhibitory concentration (IC50) in assay [1] not above 50 µM.

Take `NC(=O)C[C@H](NC(=O)[C@H](CCC(=O)O)NC(=O)[C@H](Cc1ccc(O)cc1)NC(=O)[C@H](Cc1ccc(O)cc1)NC(=O)[C@@H](N)CO)C(=O)N[C@@H](CSSC[C@H](NC(=O)[C@H](CC(N)=O)NC(=O)[C@H](CCC(=O)O)NC(=O)[C@H](Cc1ccc(O)cc1)NC(=O)[C@H](Cc1ccc(O)cc1)NC(=O)[C@@H](N)CO)C(=O)O)C(=O)O` [SEQ ID No. 125, SYYENC SYYENC] (I: H-SYYENC-OH / II: H-SYYENC-OH; disulfide I:6-II:6): the IC50 in assay [1] was not above 50 µM. As for `C[C@H](N)C(=O)N[C@H](Cc1ccc(O)cc1)C(=O)N[C@@H](Cc1ccc(O)cc1)C(=O)N[C@@H](CCC(=O)O)C(=O)N[C@@H](C)C(=O)N[C@@H](CS)C(=O)O` [SEQ ID No. 133, AyYEAC] (H-A[dY]YEAC-OH), the IC50 in assay [1] was not above 50 µM. On to `C[C@H](N)C(=O)N[C@H](Cc1ccc(O)cc1)C(=O)N[C@@H](Cc1ccc(O)cc1)C(=O)N[C@@H](CCC(=O)O)C(=O)N[C@@H](C)C(=O)N[C@@H](CSSC[C@H](NC(=O)[C@H](C)NC(=O)[C@H](CCC(=O)O)NC(=O)[C@H](Cc1ccc(O)cc1)NC(=O)[C@@H](Cc1ccc(O)cc1)NC(=O)[C@H](C)N)C(=O)O)C(=O)O` [SEQ ID No. 140, AyYEAC AyYEAC] (I: H-A[dY]YEAC-OH / II: H-A[dY]YEAC-OH; disulfide I:6-II:6), for which the IC50 in assay [1] was not above 50 µM.

As for `C[C@H](N)C(=O)N[C@@H](Cc1ccc(O)cc1)C(=O)N[C@@H](Cc1ccc(O)cc1)C(=O)NCC(=O)N[C@@H](Cc1ccc(O)cc1)C(=O)N[C@@H](CC(N)=O)C(=O)N[C@@H](CSSC[C@H](NC(=O)[C@H](CC(N)=O)NC(=O)[C@H](Cc1ccc(O)cc1)NC(=O)CNC(=O)[C@H](Cc1ccc(O)cc1)NC(=O)[C@H](Cc1ccc(O)cc1)NC(=O)[C@H](C)N)C(=O)O)C(=O)O` [SEQ ID No. 144, AYYGYNC AYYGYNC] (I: H-AYYGYNC-OH / II: H-AYYGYNC-OH; disulfide I:7-II:7), the IC50 in assay [1] is not above 50 µM. The same measure, in the same setting: the same measure for `C[C@H](N)C(=O)N[C@H](Cc1ccc(O)cc1)C(=O)N[C@@H](Cc1ccc(O)cc1)C(=O)NCC(=O)N[C@@H](C)C(=O)N[C@@H](CSSC[C@H](NC(=O)[C@H](C)NC(=O)CNC(=O)[C@H](Cc1ccc(O)cc1)NC(=O)[C@@H](Cc1ccc(O)cc1)NC(=O)[C@H](C)N)C(=O)O)C(=O)O` [SEQ ID No. 150, AyYGAC AyYGAC] (I: H-A[dY]YGAC-OH / II: H-A[dY]YGAC-OH; disulfide I:6-II:6): not above 50 µM; for `C[C@H](N)C(=O)N[C@H](Cc1ccc(O)cc1)C(=O)N[C@@H](Cc1ccc(O)cc1)C(=O)N[C@@H](CCC(=O)O)C(=O)N[C@@H](CC(N)=O)C(=O)N[C@@H](CSSC[C@H](NC(=O)[C@H](CC(N)=O)NC(=O)[C@H](CCC(=O)O)NC(=O)[C@H](Cc1ccc(O)cc1)NC(=O)[C@@H](Cc1ccc(O)cc1)NC(=O)[C@H](C)N)C(=O)O)C(=O)O` [SEQ ID No. 154, AyYENC AyYENC] (I: H-A[dY]YENC-OH / II: H-A[dY]YENC-OH; disulfide I:6-II:6): not above 50 µM.

Turning to AYFGPC [SEQ ID No. 142, AYFGPC], the IC50 in assay [1] is not above 50 µM. With “Ac-EGYYGAYGVYA [SEQ ID No. 9, [Ac]EGYYGAYGVYA]”, in assay [1], the IC50 was not above 50 µM.

As for “Ac-EGYYGNAGVAA [SEQ ID No. 15, [Ac]EGYYGNAGVAA]”, in assay [1], the IC50 is not above 50 µM.

“Ac-EGYYGNYGAAA [SEQ ID No. 41, [Ac]EGYYGNYGAAA]” came in with an IC50 in assay [1] not above 50 µM. In turn, “Ac-EGYYGNYGAYA [SEQ ID No. 42, [Ac]EGYYGNYGAYA]” came in with an IC50 in assay [1] not above 50 µM. Turning to “Ac-EGYYGNYGGYA [SEQ ID No. 43, [Ac]EGYYGNYGGYA]”, in assay [1], the IC50 was not above 50 µM.

“Ac-EGYYGNYGVAA [SEQ ID No. 12, [Ac]EGYYGNYGVAA]” came in with an IC50 in assay [1] not above 50 µM. In assay [1], “Ac-EGYYGNYGVY [SEQ ID No. 22, [Ac]EGYYGNYGVY]” gave a 50% inhibitory concentration (IC50) not above 50 µM. With “Ac-EGYYGNYGVYA [SEQ ID No. 4, [Ac]EGYYGNYGVYA]”, the IC50 in assay [1] (setting [2]) was not above 50 µM. In turn, “Ac-YYGNYGVYA [SEQ ID No. 45, [Ac]YYGNYGVYA]” came in with an IC50 in assay [1] not above 50 µM.

Consider “CGGEGYYGNYGVYA [SEQ ID No. 1, peptide from anti-α4 integrin antibody 21/6 with CGG linker, conjugated to carrier protein]”, for which, in the assay with VLA-4 integrin, the “adhesion of Jurkat cells to immobilized peptide conjugate” value is recorded as “bound equally well”. On to “CGGEILDVPST [SEQ ID No. 2, fibronectin peptide described by Wayner, positive control, conjugated to carrier protein, reference compound]”, for which, in the assay with VLA-4 integrin, the “adhesion of Jurkat cells to immobilized peptide conjugate” value is given as “bound equally well”. EGYYGNYGVY [SEQ ID No. 17, EGYYGNYGVY] yielded an IC50 in assay [1] not above 50 µM.

Turning to STLTMNPVSF [SEQ ID No. 40, STLTMNPVSF], the IC50 in assay [1] is not above 50 µM. In turn, SYYENC [SEQ ID No. 124, SYYENC] came in with an IC50 in assay [1] not above 50 µM.
